From PMC6273342, “Cytotoxic Alkaloids from the Stem of Xylopia laevigata” (Molecules, 2016)
Where two headings read alike, the source gives them in different places.

Legend:
B16-F10 (mouse melanoma) = assay: Alamar Blue cytotoxicity assay, B16-F10; format: cell-based; conditions: 72 h incubation
Excerpt: (§1) Camargo, São Paulo, Brazil.

[1] = tested on: HepG2 (human hepatocellular carcinoma); assay: Alamar Blue cytotoxicity assay, HepG2; format: cell-based; conditions: 72 h incubation
Excerpt: as §1

[2] = tested on: HL-60 (human promyelocytic leukemia); assay: Alamar Blue cytotoxicity assay, HL-60; format: cell-based; conditions: for IC50: Homo sapiens, HL-60, Alamar Blue, 72 h incubation, read-out: IC50 HL60; for selectivity index (SI): SI = IC50[PBMC]/IC50[HL-60]
Experimental: (§3) B16-F10, HepG2, K562 and HL-60 tumor cell lines were kindly donated by Hospital A.C. […] Cells were maintained in RPMI 1640 medium (Gibco-BRL, Gaithersburg, MD, USA) with 10% fetal bovine serum (Cultilab, Campinas, Brazil), 2 mM L-glutamine (Vetec Química Fina, Duque de Caxias, Brazil) and 50 μg/mL gentamycin (Novafarma, Anápolis, Brazil). Adherent cells were collected by treatment with 0.25% trypsin-EDTA solution (Gibco-BRL). All cell lines were cultured in flasks at 37 °C in 5% CO2 and sub-cultured every 3–4 days to maintain exponential growth. All cell lines were tested for mycoplasma using a Mycoplasma Stain Kit (Sigma-Aldrich, St. Louis, MO, USA) to confirm that the cells were free from contamination.
(§4) Cell viability was quantified using the Alamar Blue assay, according to Ahmed et al. [23]. Cells were placed in 96-well plates for all experiments (0.7 × 10^5 cells/mL for adherent cells or 0.3 × 10^6 cells/mL for suspended cells in 100 μL of medium). After 24 h, the alkaloids (in a range of eight different concentrations varying from 0.19 to 25 μg/mL) were dissolved in dimethyl sulfoxide (DMSO, Sigma-Aldrich Co.), and the solution was added to each well and incubated for 72 h. […] Negative controls received the vehicle that was used for diluting the alkaloids (0.5% DMSO). Four (for cell lines) or 24 h (for PBMCs) before the end of incubation, 20 μL of a stock solution (0.312 mg/mL) of the Alamar Blue (resazurin, Sigma-Aldrich Co.) was added to each well. The absorbance at 570 nm and 600 nm was measured using a SpectraMax 190 Microplate Reader (Molecular Devices, Sunnyvale, CA, USA), and the drug effect was quantified as the percentage of control absorbance.

[3] = tested on: K562 (human chronic myelocytic leukemia); assay: Alamar Blue cytotoxicity assay, K562; format: cell-based; conditions: 72 h incubation
Excerpt: as §1

[4] = tested on: peripheral blood mononuclear cells (PBMCs); assay: Alamar Blue cytotoxicity assay, non-tumor PBMCs; format: cell-based; conditions: Homo sapiens, PBMC, 72 h incubation, ConA-stimulated PBMCs
Experimental: Heparinized blood was collected from 20- to 35-year-old, healthy non-smokers who had not taken any drugs for at least 15 days prior to sampling, and the peripheral blood mononuclear cells (PBMCs) were isolated using a Ficoll density gradient in a Ficoll-Paque Plus (GE Healthcare Bio-Sciences AB, Uppsala, Sweden). PBMCs were washed and resuspended at a concentration of 0.3 × 10^6 cells/mL in RPMI 1640 medium with 20% fetal bovine serum, 2 mM L-glutamine and 50 μg/mL gentamycin at 37 °C with 5% CO2. Concanavalin A (ConA, Sigma-Aldrich Co.) was used as a mitogen to trigger cell division in T-lymphocytes. ConA (10 μg/mL) was added at the beginning of culture, and the cells were treated with the test compounds after 24 h. Cell viability was examined using a trypan blue exclusion assay for all experiments. Over 90% of the cells were viable at the beginning of the culture. The Research Ethics Committee of the Oswaldo Cruz Foundation (Salvador, Bahia, Brazil) approved the experimental protocol (#031019/2013). All participants signed a written informed consent to participate in the study.

[5] = design: method as in PMID 22491683; conditions: previously studied; cited from earlier work
[6] = tested on: tumor cell lines B16-F10, HepG2, K562 and HL-60; assay: Alamar Blue cytotoxicity assay, summary over the tumor cell lines tested; conditions: 72 h, read-out: IC50 in at least one of the tumor cell lines tested
Experimental: as §3, §4

in vitro = conditions: mouse (B16-F10); human (HepG2, K562, HL-60)
Experimental: as §3, §4

HepG2 cells [7] = assay: Trypan Blue dye exclusion, HepG2; format: cell-based, human; conditions: HepG2, 24 h, lanuginosine 10 and 20 μg/mL, (+)-xylopine 5 and 10 μg/mL
Experimental: (§2) The following set of experiments was performed to investigate the mechanisms involved in the cytotoxic action of the alkaloids lanuginosine and (+)-xylopine. In all experiments, 2 mL of a HepG2 cell solution (0.7 × 10^5 cells/mL) was placed in 24-well plates and incubated overnight to allow the cells to adhere to the plate surface. The cells were then treated for 24 h with the alkaloids lanuginosine (10 and 20 μg/mL) and (+)-xylopine (5 and 10 μg/mL). The negative control was treated with the vehicle (0.2% DMSO) used for diluting the alkaloids. […] Cell viability was assessed for all experiments using a Trypan Blue exclusion assay.

HepG2 cells [8] = assay: Acridine Orange/ethidium bromide staining, fluorescence microscopy, HepG2; format: cell-based, human; conditions: HepG2, 24 h; lanuginosine 10 and 20 μg/mL, (+)-xylopine 5 and 10 μg/mL; p < 0.05
Experimental: as §2
Cells were pelleted and resuspended in saline (25 μL). Then, 1 μL of aqueous solution of AO/EB (100 μg/mL, Sigma-Aldrich Co.) was added, and the cell viability changes were observed under a fluorescence microscope (Olympus BX41). In this assay, AO permeates all cells and makes the nuclei appear green. EB is only taken up by cells when the cytoplasmic membrane integrity is lost and stains the nucleus red. EB also dominates over AO. Thus, live cells have a normal green nucleus; early apoptotic cells have a bright green nucleus with condensed or fragmented chromatin; late apoptotic cells display condensed and fragmented orange chromatin; cells that have died from direct necrosis have a structurally normal orange nucleus. Three hundred cells were counted per sample and classified as viable, apoptotic or necrotic.

HepG2 cells [9] = assay: Morphological analysis with May-Grünwald-Giemsa staining, HepG2; format: cell-based, human; conditions: HepG2, 24 h; lanuginosine 10 and 20 μg/mL, (+)-xylopine 5 and 10 μg/mL
Experimental: as §2
To evaluate alterations in morphology, cells were cultured under a coverslip, fixed with methanol for 30 s and stained with May-Grünwald-Giemsa stain. Morphological changes were examined by light microscopy (Olympus BX41, Tokyo, Japan) using Image-Pro software (Media Cybernetics, Rockville, MD, USA).

HepG2 cells [10] = assay: Annexin assay (phosphatidylserine externalization, flow cytometry), HepG2; format: cell-based, human; conditions: HepG2, 24 h; p < 0.05; without affecting the cell membrane integrity
Experimental: as §2
Phosphatidylserine externalization was analyzed by flow cytometry. A FITC annexin V apoptosis detection kit (BD Biosciences, San Jose, CA, USA) was used to determine cell viability (viable, early apoptotic, late apoptotic and necrotic cells). Cells were washed twice with saline and then resuspended in 100 μL of binding buffer with 5 μL of propidium iodide and 5 μL of FITC annexin V. The cells were gently mixed on a vortexer and incubated for 15 min at room temperature (20–25 °C) in the dark. Afterwards, 400 μL of binding buffer was added to each tube and the cells were analyzed by flow cytometry on a BD LSRFortessa cytometer using BD FACSDiva Software (BD Biosciences) and Flowjo Software 10 (Flowjo LCC, Ashland, OR, USA). Ten thousand events were evaluated per experiment and cellular debris was omitted from the analysis.

HepG2 cells [11] = assay: Internucleosomal DNA fragmentation and cell cycle distribution (flow cytometry, propidium iodide), HepG2; format: cell-based, human; conditions: HepG2, 24 h; for Cell Cycle Phases (%) G2/M: NC 19.93 ± 6.12; for Cell Cycle Phases (%) G1: NC 51.50 ± 4.02
Experimental: as §2
Cells were harvested in a lysis solution containing 0.1% triton X-100 (Sigma Chemical Co., St. Louis, MO, USA), 2 µg/mL propidium iodide (Sigma Chemical Co.), 0.1% sodium citrate and 100 µg/mL RNAse (Sigma Chemical Co.). Cell fluorescence was determined by flow cytometry on a BD LSRFortessa cytometer using BD FACSDiva Software (BD Biosciences) and Flowjo Software 10. Ten thousand events were evaluated per experiment and cellular debris was omitted from the analysis.

For `COc1cc2c(cc1OC)-c1c(OC)c(OC)cc3c1C(C2)NCC3` (single isomer, unassigned; (+)) [(+)-Norglaucine, (+)-norglaucine], which IC50 (B16-F10 (mouse melanoma)) is on record?
The IC50 was 8.48 µg/mL.

What about the IC50 (B16-F10 (mouse melanoma); value in brackets) of the same compound?
Its IC50 is 24.8 µM.

And the IC50 [1]?
Its IC50 is 3.78 µg/mL.

And the IC50 ([1]; value in brackets)?
The IC50 was 11 µM.

And the IC50 [2]?
Its IC50 is 6.84 µg/mL.

And the IC50 ([2]; value in brackets)?
Its IC50 is 20 µM.

What about the “selectivity index (SI)” value [2] of the same compound?
The value was 1.0.

What about the IC50 [3] of the same compound?
The IC50 was 7.84 µg/mL.

And the IC50 ([3]; value in brackets)?
The IC50 was 22.9 µM.

What about the IC50 [4] of the same compound?
Its IC50 is 6.7 µg/mL.

And the IC50 ([4]; value in brackets)?
Its IC50 is 19.6 µM.

And the pro-apoptotic effect [5]?
Its pro-apoptotic effect is “no effect was found”.

And the IC50 [6]?
The IC50 was less than 4 µg/mL.

Which IC50 (B16-F10 (mouse melanoma)) does the source give for `COc1cc2c(cc1OC)-c1c(OC)c(O)cc3c1C(C2)NCC3` (single isomer, unassigned; (+)) [(+)-Norpredicentrine, (+)-norpredicentrine] here?
The IC50 was greater than 25 µg/mL.

What about the IC50 [1] of the same compound?
Its IC50 is greater than 25 µg/mL.

And the IC50 [2]?
Its IC50 is greater than 25 µg/mL.

What about the IC50 [3] of the same compound?
Its IC50 is greater than 25 µg/mL.

And the IC50 [4]?
The IC50 was greater than 25 µg/mL.

What about the IC50 at 72 h (in vitro) of the same compound?
The IC50 at 72 h was greater than 25 µg/mL.

Which results are given for `COc1ccc2c(c1)C[C@@H]1NCCc3cc4c(c-2c31)OCO4` [(+)-Xylopine, (+)-xylopine]?
IC50 (B16-F10 (mouse melanoma)): 3.77 µg/mL; IC50 (B16-F10 (mouse melanoma); value in brackets): 12.7 µM; IC50 [1]: 1.87 µg/mL; IC50 ([1]; value in brackets): 6.31 µM; IC50 [2]: 1.87 µg/mL; IC50 ([2]; value in brackets): 6.31 µM; selectivity index (SI) [2]: 2.2; IC50 [3]: 3.12 µg/mL; IC50 ([3]; value in brackets): 10.5 µM; IC50 [4]: 4.08 µg/mL; IC50 ([4]; value in brackets): 13.8 µM; number of non-viable cells (HepG2 cells [7]): without increasing the number of non-viable cells; number of viable cells (HepG2 cells [7]; p < 0.05): reduce the number of viable cells; number of apoptotic cells (AO/EB) (HepG2 cells [8]): increased number of apoptotic cells; cell morphology (HepG2 cells [9]): morphology consistent with apoptosis, including chromatin condensation and fragmentation of the nuclei; phosphatidylserine exposure (HepG2 cells [10]): significant increase in phosphatidylserine exposure; Cell Cycle Phases (%) S (HepG2 cells [11]; 5 µg/mL, NC 16.11 ± 1.89): 10.80 ± 1.50 %; Cell Cycle Phases (%) G2/M (HepG2 cells [11]; 5 µg/mL): 64.16 ± 2.56 %; Cell Cycle Phases (%) G1 (HepG2 cells [11]; 5 µg/mL): 28.05 ± 3.15 %; Cell Cycle Phases (%) G2/M (HepG2 cells [11]; 10 µg/mL): 39.96 ± 9.59 %; Cell Cycle Phases (%) G1 (HepG2 cells [11]; 10 µg/mL): 20.43 ± 3.06 %; effect on cell cycle distribution (HepG2 cells [11]; 5 and 10 μg/mL): total number of cells in the G2/M phase increased, indicating cell cycle arrest during this phase; internucleosomal DNA fragmentation (sub-G1) (HepG2 cells [11]; 5 and 10 μg/mL, p < 0.05): increase in the internucleosomal DNA fragmentation; IC50 [6]: < 4 µg/mL
